Assay results: patent US7317037B2, “Progesterone receptor modulators comprising pyrrole-oxindole derivatives and uses thereof” (Wyeth, priority 2004, dated 2008)

Molecular target: T1, progesterone receptor (PR) (Homo sapiens, UniProt P06401)
T1 construct: Effects of Progestins and Antiprogestins on Alkaline Phosphatase Activity in T47D Cells; endogenous in cells; host or cells: T47D cells
T1 sequence (P06401 1-933): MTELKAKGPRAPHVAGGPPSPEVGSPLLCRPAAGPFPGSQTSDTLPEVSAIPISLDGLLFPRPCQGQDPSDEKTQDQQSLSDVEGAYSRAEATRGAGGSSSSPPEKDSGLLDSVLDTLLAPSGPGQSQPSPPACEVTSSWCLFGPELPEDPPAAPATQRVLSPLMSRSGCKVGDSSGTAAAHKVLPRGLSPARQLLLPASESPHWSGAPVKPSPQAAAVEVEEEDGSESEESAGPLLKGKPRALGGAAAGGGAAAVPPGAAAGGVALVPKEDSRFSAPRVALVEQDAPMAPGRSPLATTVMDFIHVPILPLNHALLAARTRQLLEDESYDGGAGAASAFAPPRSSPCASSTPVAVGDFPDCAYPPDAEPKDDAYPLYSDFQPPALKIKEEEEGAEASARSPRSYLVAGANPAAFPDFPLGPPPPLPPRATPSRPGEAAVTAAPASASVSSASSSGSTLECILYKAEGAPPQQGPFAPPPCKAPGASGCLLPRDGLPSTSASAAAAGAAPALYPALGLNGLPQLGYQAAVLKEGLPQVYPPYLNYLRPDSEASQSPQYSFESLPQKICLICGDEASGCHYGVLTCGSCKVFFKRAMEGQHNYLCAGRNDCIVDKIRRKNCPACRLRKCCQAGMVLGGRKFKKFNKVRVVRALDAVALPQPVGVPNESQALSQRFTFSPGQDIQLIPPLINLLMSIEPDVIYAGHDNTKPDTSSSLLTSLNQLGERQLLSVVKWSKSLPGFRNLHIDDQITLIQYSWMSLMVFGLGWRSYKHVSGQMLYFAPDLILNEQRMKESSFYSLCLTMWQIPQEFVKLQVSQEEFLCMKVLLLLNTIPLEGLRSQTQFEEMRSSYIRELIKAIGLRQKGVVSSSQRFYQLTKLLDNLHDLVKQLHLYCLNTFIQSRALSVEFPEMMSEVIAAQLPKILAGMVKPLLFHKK
Test: T47D cell alkaline phosphatase assay (antagonist mode)
Type: cell-based
Conditions: T47D cells, antagonist mode in the presence of 1 nM progesterone, 24 hours; read-out: IC50 (nM), T47D Cell Alkaline Phosphatase Assay
Procedure: A. Effects of Progestins and Antiprogestins on Alkaline Phosphatase Activity in T47D Cells (T47D Alkaline Phosphatase Assay)
Culture medium: DMEM:F12 (1:1) (GIBCO, BRL) supplemented with 5% (v/v) charcoal stripped fetal bovine serum (not heat-inactivated), 100 U/mL penicillin, 100 μg/mL streptomycin, and 2 mM GlutaMax (GIBCO, BRL).
Alkaline phosphatase assay buffer: I. 0.1M Tris-HCl, pH 9.8, containing 0.2% Triton X-100, 0.1M Tris-HCl, pH 9.8, containing 4 mM p-nitrophenyl phosphate (Sigma).
2. Cell Culture and Treatment:
Frozen T47D cells are thawed in a 37° C. water bath and diluted to 280,000 cells/mL in culture medium. To each well in a 96-well plate (Falcon, Becton Dickinson Labware), 180 μl of diluted cell suspension is added. Twenty μl of reference or test compounds diluted in the culture medium is then added to each well. When testing for progestin antagonist activity, reference antiprogestins or test compounds are added in the presence of 1 nM progesterone. The cells are incubated at 37° C. in a 5% CO2 humidified atmosphere for 24 hours. For high throughput screening, one concentration of each compound will be tested at 0.3 μg/mL. Based on an average molecular weight of 300 g/mol for the compounds in the library, the concentration is approximately 1 μM. Subsequently, active compounds will be tested in dose response assays to determine EC50 and IC50.
3. Alkaline Phosphatase Enzyme Assay:
At the end of treatment, the medium is removed from the plate. Fifty μl of assay buffer I is added to each well. The plates are shaken in a titer plate shaker for 15 min. Then 150 μl of assay buffer II is added to each well. Optical density measurements are taken at 5 min intervals for 30 min at a test wavelength of 405 nm.
4. Analysis of Dose-Response Data.
For reference and test compounds, a dose response curve is generated for dose vs. the rate of enzyme reaction (slope). Square root-transformed data are used for analysis of variance and nonlinear dose response curve fitting for both agonist and antagonist modes. Huber weighting is used to down-weight the effects of outliers. EC50 or IC50 values are calculated from the retransformed values. JMP software (SAS Institute, Inc.) is used for both one-way analysis of variance and non-4 linear dose response analysis in both single dose and dose response studies.
Progesterone and trimegestone are reference progestins and RU486 is the reference antiprogestin. All reference compounds are run in full dose response curves and the EC50 and IC50 values are calculated.

Row | IC50 | Compound
1 | 4.5 nM | C=CCN1C(=O)C(C)(C)c2cc(-c3ccc(C#N)n3C)cc(F)c21 [5-(1-allyl-7-fluoro-3,3-dimethyl-2-oxo-2,3-dihydro-1H-indol-5-yl)-1-methyl-1H-pyrrole-2-carbonitrile]
2 | 164 nM | Cn1c(C#N)ccc1-c1cc(F)c2c(c1)C(C)(C)C(=O)N2Cc1ccccc1 [5-(1-benzyl-7-fluoro-3,3-dimethyl-2-oxo-2,3-dihydro-1H-indol-5-yl)-1-methyl-1H-pyrrole-2-carbonitrile]
3 | 194 nM | Cn1c(C#N)ccc1-c1cc(F)c2c(c1)C(C)(C)C(=O)N2C1CCCCC1 [5-(1-cyclohexyl-7-fluoro-3,3-dimethyl-2-oxo-2,3-dihydro-1H-indol-5-yl)-1-methyl-1H-pyrrole-2-carbonitrile]
4 | 25.2 nM | Cn1c(C#N)ccc1-c1cc(F)c2c(c1)C(C)(C)C(=O)N2C1CCCC1 [5-(1-cyclopentyl-7-fluoro-3,3-dimethyl-2-oxo-2,3-dihydro-1H-indol-5-yl)-1-methyl-1H-pyrrole-2-carbonitrile]
5 | 29.5 nM | CCN1C(=O)C(C)(C)c2cc(-c3ccc(C#N)n3C)cc(F)c21 [5-(1-ethyl-7-fluoro-3,3-dimethyl-2-oxo-2,3-dihydro-1H-indol-5-yl)-1-methyl-1H-pyrrole-2-carbonitrile]
6 | 4.95 nM | CCC1(CC)C(=O)Nc2c(F)cc(-c3ccc(C#N)n3C)cc21 [5-(3,3-diethyl-7-fluoro-2-oxo-2,3-dihydro-1H-indol-5-yl)-1-methyl-1H-pyrrole-2-carbonitrile]
7 | 30 nM | Cn1c(C#N)ccc1-c1ccc2c(c1F)C(C)(C)C(=O)N2 [5-(4-fluoro-3,3-dimethyl-2-oxo-2,3-dihydro-1H-indol-5-yl)-1-methyl-1H-pyrrole-2-carbonitrile]
8 | 7.8 nM | Cn1c(C#N)ccc1-c1ccc2c(c1F)C1(CC1)C(=O)N2 [5-(4′-fluoro-2′-oxo-1′,2′-dihydrospiro[cyclopropane-1,3′-indol]-5′yl)-1-methyl-1H-pyrrole-2-carbonitrile]
9 | 22.3 nM | CN1C(=O)C(C)(C)c2cc(-c3ccc(C#N)n3C)cc(F)c21 [5-(7-Fluoro-1,3,3-trimethyl-2-oxo-2,3-dihydro-1H-indol-5-yl)-1-methyl-1H-pyrrole-2-carbonitrile]
10 | 29.9 nM | CC(C)CN1C(=O)C(C)(C)c2cc(-c3ccc(C#N)n3C)cc(F)c21 [5-(7-fluoro-1-isobutyl-3,3-dimethyl-2-oxo-2,3-dihydro-1H-indol-5-yl)-1-methyl-1H-pyrrole-2-carbonitrile]
11 | 13 nM | CC(C)N1C(=O)C(C)(C)c2cc(-c3ccc(C#N)n3C)cc(F)c21 [5-(7-fluoro-1-isopropyl-3,3-dimethyl-2-oxo-2,3-dihydro-1H-indol-5-yl)-1-methyl-1H-pyrrole-2-carbonitrile]
12 | 109 nM | Cn1c(C#N)ccc1-c1cc(F)c2c(c1)CC(=O)N2 [5-(7-fluoro-2-oxo-2,3-dihydro-1H-indol-5-yl)-1-methyl-1H-pyrrole-2-carbonitrile]
13 | 30 nM | C#CCN1C(=O)C(C)(C)c2cc(-c3ccc(C#N)n3C)cc(F)c21 [5-(7-fluoro-3,3-dimethyl-2-oxo-1-prop-2-yn-1-yl-2,3-dihydro-1H-indol-5-yl)-1-methyl-1H-pyrrole-2-carbonitrile]
14 | 26.5 nM | CCCN1C(=O)C(C)(C)c2cc(-c3ccc(C#N)n3C)cc(F)c21 [5-(7-fluoro-3,3-dimethyl-2-oxo-1-propyl-2,3-dihydro-1H-indol-5-yl)-1-methyl-1H-pyrrole-2-carbonitrile]
15 | 107 nM | CC1(C)C(=O)Nc2c(F)cc(-c3ccc(C#N)[nH]3)cc21 [5-(7-fluoro-3,3-dimethyl-2-oxo-2,3-dihydro-1H-indol-5-yl)-1H-pyrrole-2-carbonitrile]
16 | 2.75 nM | Cn1c(C#N)ccc1-c1cc(F)c2c(c1)C1(CCC1)C(=O)N2 [5-(7′-fluoro-2′-oxo-1′,2′-dihydrospiro[cyclobutane-1,3′-indol]-5′-yl)-1-methyl-1H-pyrrole-2-carbonitrile]
